Results: patent publication US20250134813A1, “COMPOUNDS, LIPSOMES, AND DRUG CARRIERS FOR DRUG DELIVERY” (priority 2023, published 2025)
≈ marks a conversion by molar mass, not a printed value.

Legend:
CHL cells = assay: Evaluation of cell toxicity (CCK8 cell viability); format: cell-based
Protocol: CHL cells are seeded in a 96-well culture plate at a density of 4000 cells per well and incubated overnight at 37° C. in a 5% CO2 incubator. The culture medium is then replaced with 100 μL of medium containing different concentrations of ALC-0315, SM-102, and compounds prepared according to embodiments 1 and 2 of the present invention (specific concentrations are shown in FIG. 1), and cells are further incubated for 48 hours. Subsequently, 10 μL of CCK8 solution is added to each well and incubated for an additional 4 hours in the cell culture incubator. After the incubation, the absorbance at 450 nm is measured using a microplate reader, and cell viability is calculated. The IC50 values are calculated using GraphPad Prism software (version 8.01).

[1] = test system: RBD of the wild-type Delta strain S protein; assay: Immunostimulatory efficacy of LNPs@Delta S-2P mRNA (serum antibody titers by ELISA); format: in vivo, Balb/c mice; details: for GMT: i.m.
Fluc mRNA expression [2] = assay: In vivo expression of LNPs@Fluc mRNA via intravenous injection (organ bioluminescence, IVIS); design: species or system NIH mouse; details: intravenous (tail vein), 10 μg FLuc mRNA per mouse, 6 hours after administration; vs MC3, ALC-0315, SM-102
Protocol: Furthermore, the ability of LNPs@mRNA prepared using compounds of the present invention to deliver mRNA in vivo was investigated. The inventors chose firefly luciferase as the reporter gene to label mRNA, referred to as Fluc mRNA. Following the method outlined in Example 3, LNPs@Fluc mRNA were prepared using different ionizable lipids (Compound 8, MC3, ALC-0315, or SM-102), referred to as LNP@Fluc mRNA formulation, MC3@Fluc mRNA, ALC-0315@Fluc mRNA, and SM-102@Fluc mRNA, respectively. These formulations were administered via intravenous injection (Step 2.1 of this example) and intramuscular injection (Step 2.2 of this example) to investigate the ability of LNPs@mRNA formulations prepared using compounds of the present invention to express mRNA in vivo and the distribution of expression. […]
(§1) Each formulation's mRNA concentration was adjusted to 0.05 mg/mL using PBS solution, and the osmolarity of each formulation was adjusted to isotonic. […] The heart, liver, spleen, lungs, and kidneys were rapidly dissected, and the bioluminescence intensity of each excised organ was measured using an IVIS instrument with an exposure time of 60 s. Total flux of each organ was calculated after imaging. […]

Fluc mRNA expression [3] = assay: In vivo expression of LNPs@Fluc mRNA via intramuscular injection (bioluminescence, IVIS); design: species or system BALB/c mouse; details: 20 μg FLuc mRNA per mouse, 8 hours after administration, vs MC3, ALC-0315, SM-102
Protocol: Furthermore, the ability of LNPs@mRNA prepared using compounds of the present invention to deliver mRNA in vivo was investigated. The inventors chose firefly luciferase as the reporter gene to label mRNA, referred to as Fluc mRNA. Following the method outlined in Example 3, LNPs@Fluc mRNA were prepared using different ionizable lipids (Compound 8, MC3, ALC-0315, or SM-102), referred to as LNP@Fluc mRNA formulation, MC3@Fluc mRNA, ALC-0315@Fluc mRNA, and SM-102@Fluc mRNA, respectively. These formulations were administered via intravenous injection (Step 2.1 of this example) and intramuscular injection (Step 2.2 of this example) to investigate the ability of LNPs@mRNA formulations prepared using compounds of the present invention to express mRNA in vivo and the distribution of expression.
The formulations LNPs@Fluc mRNA (Compound 8), the positive control formulation MC3@Fluc mRNA, ALC-0315@Fluc mRNA, and SM-102@Fluc mRNA, abbreviated as follows, were prepared as described above.
as §1, with “0.1” for “0.05”, “The” for “The heart, liver, spleen, lungs, and kidneys were rapidly dissected, and the”, “the entire body of the live mice” for “each excised organ”

[4] = Table 3: 1 μg each time, two administrations 14 days apart, serum 28 days after the initial immunization
[5] = CHL cells, 48 hours incubation, CCK8, cell viability
[6] = Day 14, dose 0.1 μg, LNPs@Delta S-2P mRNA prepared with the lipid
[7] = Day 14, dose 1 μg, LNPs@Delta S-2P mRNA prepared with the lipid
[8] = Day 14, dose 5 μg, LNPs@Delta S-2P mRNA prepared with the lipid
[9] = Day 28, dose 0.1 μg, two administrations 14 days apart
[10] = Day 28, dose 1 μg, two administrations 14 days apart
[11] = Day 28, dose 5 μg, two administrations 14 days apart

SMILES	IC50 (CHL cells; CHL, 48 h)	GMT [1, 4]	also measured
CCCCCCCCC(CCCCCC)CNC(=O)NCCCCCN(CCCCO)CCCCCNC(=O)NCC(CCCCCC)CCCCCCCC (stereo not drawn) [Compound 11]	137 µg/mL (≈ 173 µM)	473,681.3	
CCCCCCCCCCCCNC(=O)NCCCCCCN(CCCCO)CCCCCCNC(=O)NCC(CCCCCC)CCCCCCCC (stereo not drawn) [Compound 21]	119 µg/mL (≈ 156 µM)	208,203.5	
CCCCCCCCCCCOC(=O)CCCCCN(CCO)CCCCCCCC(=O)OC(CCCCCCCC)CCCCCCCC [SM-102, reference compound]		81,274.9	IC50 (CHL cells; [5]): 55.9 µg/mL (≈ 78.7 µM); GMT [1, 6]: 712.7; GMT [1, 7]: 2262.7; GMT [1, 8]: 18101.9; GMT [1, 9]: 18101.9; GMT [1, 10]: 81274.9; GMT [1, 11]: 325099.7
CCCCCCCCC(CCCCCCCC)CNC(=O)NCCCCCCN(CCCCO)CCCCCCNC(=O)NCC(CCCCCCCC)CCCCCCCC [Compound 17]	174 µg/mL (≈ 198 µM)	299,707.3	
CCCCCCCCC(CCCCCC)CNC(=O)NCCCCCCCCCN(CCCCO)CCCCCCCCCNC(=O)NCC(CCCCCC)CCCCCCCC (stereo not drawn) [Compound 12]	195 µg/mL (≈ 215 µM)	449,359.1	
CCCCCCCCC(CCCCCC)CNC(=O)NCCCCCCCCCCCCN(CCCCO)CCCCCCNC(=O)NCC(CCCCCC)CCCCCCCC (stereo not drawn) [Compound 15]	147 µg/mL (≈ 162 µM)	400,363.5	
CCCCCCCCC(CCCCCC)CNC(=O)NCCCCCCN(CCCCO)CCCCCCNC(=O)NCC(CCCCCC)CCCCCCCC (stereo not drawn) [Compound 8]	166 µg/mL (≈ 202 µM)	325,099.7	mRNA expression capability based on the total bioluminescence emitted (Fluc mRNA expression [2]): stronger mRNA expression capability compared to the three positive control materials; mRNA expression capability based on the total bioluminescence emitted (Fluc mRNA expression [3]): stronger mRNA expression capability compared to the three positive control materials; Compound 8 GMT/SM-102 GMT ([1]; Day 14, dose 0.1 μg): 6.3; GMT [1, 6]: 4525.5; Compound 8 GMT/SM-102 GMT ([1]; Day 14, dose 1 μg): 14.3; GMT [1, 7]: 32254.0; Compound 8 GMT/SM-102 GMT ([1]; Day 14, dose 5 μg): 4.5; GMT [1, 8]: 81274.9; Compound 8 GMT/SM-102 GMT ([1]; Day 28, dose 0.1 μg): 3.6; GMT [1, 9]: 64508.0; Compound 8 GMT/SM-102 GMT ([1]; Day 28, dose 1 μg): 4.0; GMT [1, 10]: 325099.7; Compound 8 GMT/SM-102 GMT ([1]; Day 28, dose 5 μg): 2.5; GMT [1, 11]: 819200.0
CCCCCCCCC(CCCCCC)CNC(=O)NCCCCCCN(CCCCCCCO)CCCCCCNC(=O)NCC(CCCCCC)CCCCCCCC (stereo not drawn) [Compound 10]	153 µg/mL (≈ 177 µM)	299,812.1	
CCCCCCCCC(CCCCCC)CNC(=O)NCCCCCCN(CCCO)CCCCCCNC(=O)NCC(CCCCCC)CCCCCCCC (stereo not drawn) [Compound 7]	126 µg/mL (≈ 155 µM)	341,832.9	
CCCCCCCCC(CCCCCC)CNC(=O)NCCCCCCCCCCCCN(CCCCO)CCCCCCCCCCCCNC(=O)NCC(CCCCCC)CCCCCCCC (stereo not drawn) [Compound 13]	136 µg/mL (≈ 137 µM)	210,944.0	
CCCCCCCCC(CCCCCC)C(=O)OCCCCCCN(CCCCO)CCCCCCOC(=O)C(CCCCCC)CCCCCCCC (stereo not drawn) [ALC-0315, reference compound]			IC50 (CHL cells; [5]): 29.9 µg/mL (≈ 39 µM)
CCCCCCC(CCCCCC)CNC(=O)NCCCCCCN(CCCCO)CCCCCCNC(=O)NCC(CCCCCC)CCCCCC [Compound 16]	134 µg/mL (≈ 174 µM)	244,238.6	
CCCCCCCCC(CCCCCC)CNC(=O)NCCCCCCN(CCCCCO)CCCCCCNC(=O)NCC(CCCCCC)CCCCCCCC (stereo not drawn) [Compound 9]	152 µg/mL (≈ 182 µM)	452,334.1	
